One series deals with AKT1 (Homo sapiens, UniProt P31749). Nature of the series: Inhibition of recombinant human full-length His-tagged AKT1 expressed in baculovirus expression system at 25 uM using FRET-labeled Ser/Thr 05 peptide as substrate measured after 1 hr by Z'-lyte assay relative to control. The settings on record: probe FRET-labeled Ser/Thr 05 peptide.
The next series deals with MAPK1 (Homo sapiens, UniProt P28482). Nature of the series: Inhibition of recombinant human full-length GST-tagged MAPK1 […] expressed in Escherichia coli at 25 uM using FRET-labeled Ser/Thr 03 peptide as substrate measured after 1 hr by Z'-lyte assay relative to control. The following applies: probe FRET-labeled Ser/Thr 03 peptide.
In the next series the target is MAPK14 (Homo sapiens, UniProt Q16539). Nature of the series: Inhibition of recombinant human full-length GST-tagged MAPK14 expressed in Escherichia coli at 25 uM using FRET-labeled Ser/Thr 15 peptide as substrate measured after 1 hr by Z'-lyte assay relative to control. The settings on record: probe FRET-labeled Ser/Thr 15 peptide.
The target in another series is SGK (Sgk1) (Homo sapiens, UniProt O00141). Nature of the series: Inhibition of recombinant human GST-tagged SGK catalytic domain (60 to 431 residues) expressed in baculovirus expression system at 25 uM using FRET-labeled Ser/Thr 06 peptide as substrate measured after 1 hr by Z'-lyte assay relative to control. The following applies: probe FRET-labeled Ser/Thr 06 peptide.

Another series has as its target AURKA (Homo sapiens, UniProt O14965). Briefly: Inhibition of recombinant human full-length His-tagged AURKA expressed in baculovirus expression system at 25 uM using FRET-labeled Ser/Thr 01 peptide as substrate measured after 1 hr by Z'-lyte assay relative to control. The following applies: probe FRET-labeled Ser/Thr 01 peptide.
Another series deals with CHEK2 (Homo sapiens, UniProt O96017). Nature of the series: Inhibition of recombinant human full-length His-tagged CHEK2 expressed in baculovirus expression system at 25 uM using FRET-labeled Ser/Thr 07 peptide as substrate measured after 1 hr by Z'-lyte assay relative to control. The following applies: probe FRET-labeled Ser/Thr 07 peptide.
The target of a further series is CDK1/cyclin B (Homo sapiens, UniProt P06493). Nature of the series: Inhibition of full-length recombinant human His-tagged CDK1/cyclin B expressed in baculovirus expression system at 25 uM using FRET-labeled Ser/Thr 18 peptide as substrate measured after 1 hr by Z'-lyte assay relative to control. The following applies: probe FRET-labeled Ser/Thr 18 peptide.
Series [1] has as its system Escherichia coli. Briefly: Induction of cytological changes in Escherichia coli ATCC 25922 assessed as formation of short chains of three to eight cells at 100 ug/ml measured after 2 hrs by FM 4-64/DAPI staining based microscopic analysis. It counts as functional, organism-based.
The target in another series is CSNK2A1 (Homo sapiens, UniProt P68400). Briefly: Inhibition of recombinant human full-length His-tagged CSNK2A1 expressed in baculovirus expression system at 25 uM using FRET-labeled Ser/Thr 11 peptide as substrate measured after 1 hr by Z'-lyte assay relative to control. The following applies: probe FRET-labeled Ser/Thr 11 peptide.
Series [2] relates to Escherichia coli. Briefly: Antibacterial activity against Escherichia coli DM4100 harboring deltatolC mutant measured after 18 to 20 hrs by broth microdilution method. The series is classed as functional.
Series [3] concerns Escherichia coli. Briefly: Induction of cytological changes in Escherichia coli ATCC 25922 assessed as formation of short chains of three to eight cells at 15 ug/ml measured after 2 hrs by FM 4-64/DAPI staining based microscopic analysis. It counts as functional, organism-based.
For another series, the target named is FYN (Homo sapiens, UniProt P06241). Nature of the series: Inhibition of full-length recombinant human C-terminal His-tagged FYN cytoplasmic domain expressed in baculovirus expression system at 25 uM using FRET-labeled tyr 02 peptide as substrate measured after 1 hr by Z'-lyte assay relative to control. The settings on record: probe FRET-labeled tyr 02 peptide.

Another series concerns the target Biotin carboxylase (Pseudomonas aeruginosa (strain ATCC 15692 / DSM 22644 / CIP 104116 / JCM14847 / LMG 12228 / 1C / PRS 101 / PAO1), UniProt P37798). Briefly: Inhibition of recombinant N-terminal His-tagged Pseudomonas aeruginosa PAO1 biotin carboxylase expressed in Escherichia coli Rosetta(DE3) pLysS cells using biotin as substrate by spectroscopic analysis.

For a further series, the target named is IKBKE (Homo sapiens, UniProt Q14164). Briefly: in vitro. The following applies: probe FRET-labeled Ser/Thr 11 peptide.
The target of the next series is MET (Homo sapiens, UniProt P08581). Briefly: in vitro. The following applies: probe FRET-labeled Tyr 06 peptide.
Another series deals with Pseudomonas aeruginosa. Nature of the series: Antibacterial activity against Pseudomonas aeruginosa PAO1 PAM1262 harboring MexAB-OprM/MexCD-OprJ/MexEF-OprN deletion mutant assessed as mutation frequency at 8 times MIC after 48 hrs by broth microdilution method. It counts as functional.
The next series addresses BTK (Homo sapiens, UniProt Q06187). Nature of the series: Inhibition of full-length recombinant human His-tagged BTK cytoplasmic domain expressed in baculovirus expression system at 25 uM using FRET-labeled tyr 01 peptide as substrate measured after 1 hr by Z'-lyte assay relative to control. The following applies: probe FRET-labeled tyr 01 peptide.
The next series deals with IKBKB (Homo sapiens, UniProt O14920). Nature of the series: in vitro. The settings on record: probe FRET-labeled Ser/Thr 05 peptide.

≈ marks a conversion by molar mass, not a printed value. Calls of active or inactive are those of the source. No cut-off for these calls is given here. Bounds are passed on as bounds.

The term inhibition denotes the drop in the measured response relative to a control, in per cent. Broadly, the MIC is the lowest concentration found to suppress growth. In general, IC50 refers to the midpoint of a concentration-inhibition curve.

Chain of AKT1 (P31749 whole entry): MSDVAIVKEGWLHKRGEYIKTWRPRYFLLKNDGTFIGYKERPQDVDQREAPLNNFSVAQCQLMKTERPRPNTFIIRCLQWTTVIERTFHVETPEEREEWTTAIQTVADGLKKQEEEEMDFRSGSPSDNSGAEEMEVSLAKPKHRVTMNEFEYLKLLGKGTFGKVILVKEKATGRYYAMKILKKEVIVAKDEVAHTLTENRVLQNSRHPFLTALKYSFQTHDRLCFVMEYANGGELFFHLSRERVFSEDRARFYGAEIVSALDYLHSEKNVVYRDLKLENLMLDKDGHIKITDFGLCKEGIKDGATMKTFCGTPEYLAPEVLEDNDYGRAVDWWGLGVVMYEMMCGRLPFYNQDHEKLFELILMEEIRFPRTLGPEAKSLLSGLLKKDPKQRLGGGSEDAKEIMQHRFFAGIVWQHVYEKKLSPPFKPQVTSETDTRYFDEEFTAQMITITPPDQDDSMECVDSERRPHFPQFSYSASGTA
Chain of CHEK2 (O96017 whole entry): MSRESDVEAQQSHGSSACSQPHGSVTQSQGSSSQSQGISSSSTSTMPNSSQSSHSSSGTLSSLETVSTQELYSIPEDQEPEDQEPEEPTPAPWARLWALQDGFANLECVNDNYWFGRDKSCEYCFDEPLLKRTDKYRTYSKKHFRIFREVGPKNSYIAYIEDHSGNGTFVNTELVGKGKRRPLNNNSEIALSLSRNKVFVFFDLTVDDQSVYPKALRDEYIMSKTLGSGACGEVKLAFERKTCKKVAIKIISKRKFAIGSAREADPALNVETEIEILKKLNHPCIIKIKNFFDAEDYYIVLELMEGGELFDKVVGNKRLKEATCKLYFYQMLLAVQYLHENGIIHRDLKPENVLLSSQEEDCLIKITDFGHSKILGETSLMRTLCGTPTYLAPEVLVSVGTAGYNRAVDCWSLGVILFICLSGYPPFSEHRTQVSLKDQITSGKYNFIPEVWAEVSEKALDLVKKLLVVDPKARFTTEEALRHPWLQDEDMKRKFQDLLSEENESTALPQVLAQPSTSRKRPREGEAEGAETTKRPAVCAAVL
Chain of CSNK2A1 (P68400 whole entry): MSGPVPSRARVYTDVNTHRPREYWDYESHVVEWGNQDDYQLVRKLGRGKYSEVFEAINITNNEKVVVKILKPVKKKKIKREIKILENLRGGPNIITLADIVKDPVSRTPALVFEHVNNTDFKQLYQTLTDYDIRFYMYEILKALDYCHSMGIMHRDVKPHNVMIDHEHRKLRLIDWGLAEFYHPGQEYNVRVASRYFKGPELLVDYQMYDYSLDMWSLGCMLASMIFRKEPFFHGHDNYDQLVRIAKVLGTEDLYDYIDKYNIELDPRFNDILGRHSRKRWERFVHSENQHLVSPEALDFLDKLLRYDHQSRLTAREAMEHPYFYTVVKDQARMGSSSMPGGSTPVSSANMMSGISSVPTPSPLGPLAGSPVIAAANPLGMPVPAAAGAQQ
Chain of IKBKE (Q14164 whole entry): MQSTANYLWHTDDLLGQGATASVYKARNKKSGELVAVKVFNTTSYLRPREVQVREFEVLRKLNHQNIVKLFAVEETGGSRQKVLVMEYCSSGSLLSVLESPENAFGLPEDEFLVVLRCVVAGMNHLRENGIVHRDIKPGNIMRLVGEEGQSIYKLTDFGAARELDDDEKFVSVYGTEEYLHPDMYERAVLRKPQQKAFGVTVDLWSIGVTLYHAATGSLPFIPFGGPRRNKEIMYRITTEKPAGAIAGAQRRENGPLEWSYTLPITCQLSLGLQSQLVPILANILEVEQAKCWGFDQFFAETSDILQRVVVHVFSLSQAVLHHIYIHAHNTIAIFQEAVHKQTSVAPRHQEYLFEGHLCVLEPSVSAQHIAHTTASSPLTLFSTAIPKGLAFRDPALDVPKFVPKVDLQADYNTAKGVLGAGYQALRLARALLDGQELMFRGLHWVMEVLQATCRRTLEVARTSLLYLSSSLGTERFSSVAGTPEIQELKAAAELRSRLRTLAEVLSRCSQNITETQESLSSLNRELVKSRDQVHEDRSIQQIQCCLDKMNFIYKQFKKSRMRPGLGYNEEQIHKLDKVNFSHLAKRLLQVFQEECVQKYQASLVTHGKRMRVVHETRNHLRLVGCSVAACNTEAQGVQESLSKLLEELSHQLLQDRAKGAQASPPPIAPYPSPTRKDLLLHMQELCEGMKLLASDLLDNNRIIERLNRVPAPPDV
Chain of FYN (P06241 whole entry, the tested form may be a part): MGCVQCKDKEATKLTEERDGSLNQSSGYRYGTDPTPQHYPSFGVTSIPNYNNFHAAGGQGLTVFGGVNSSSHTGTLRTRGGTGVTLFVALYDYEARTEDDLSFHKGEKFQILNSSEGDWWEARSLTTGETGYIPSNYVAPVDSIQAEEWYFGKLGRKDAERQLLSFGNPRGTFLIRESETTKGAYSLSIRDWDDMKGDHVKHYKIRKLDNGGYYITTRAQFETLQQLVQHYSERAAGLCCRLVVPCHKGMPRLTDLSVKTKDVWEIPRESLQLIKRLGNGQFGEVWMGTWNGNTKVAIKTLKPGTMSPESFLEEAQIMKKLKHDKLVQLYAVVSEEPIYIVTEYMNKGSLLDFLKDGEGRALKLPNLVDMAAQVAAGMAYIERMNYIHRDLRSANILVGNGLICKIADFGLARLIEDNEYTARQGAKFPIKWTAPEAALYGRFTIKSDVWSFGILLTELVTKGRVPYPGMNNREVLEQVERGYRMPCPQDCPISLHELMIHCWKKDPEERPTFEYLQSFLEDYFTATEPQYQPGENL
Chain of MAPK14 (Q16539 whole entry, the tested form may be a part): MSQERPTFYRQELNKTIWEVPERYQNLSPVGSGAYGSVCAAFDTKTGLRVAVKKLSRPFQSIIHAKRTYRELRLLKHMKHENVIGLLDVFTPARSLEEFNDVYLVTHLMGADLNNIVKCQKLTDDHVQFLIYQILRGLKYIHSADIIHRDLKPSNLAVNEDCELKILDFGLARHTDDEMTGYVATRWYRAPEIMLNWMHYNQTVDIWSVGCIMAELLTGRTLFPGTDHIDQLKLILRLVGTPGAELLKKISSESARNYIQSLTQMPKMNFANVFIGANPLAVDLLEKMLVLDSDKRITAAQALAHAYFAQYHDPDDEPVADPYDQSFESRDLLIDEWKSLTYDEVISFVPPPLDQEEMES
Chain of CDK1/cyclin B (P06493 whole entry): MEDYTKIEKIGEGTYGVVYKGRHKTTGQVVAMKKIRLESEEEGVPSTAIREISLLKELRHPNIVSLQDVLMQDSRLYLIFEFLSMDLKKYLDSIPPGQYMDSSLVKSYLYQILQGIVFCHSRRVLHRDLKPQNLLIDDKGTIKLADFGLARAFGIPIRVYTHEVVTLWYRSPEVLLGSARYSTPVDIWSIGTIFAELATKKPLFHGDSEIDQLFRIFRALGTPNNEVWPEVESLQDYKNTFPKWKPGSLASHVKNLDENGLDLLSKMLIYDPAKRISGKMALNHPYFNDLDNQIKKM
Chain of CDK1/cyclin B (P14635 whole entry, further chain): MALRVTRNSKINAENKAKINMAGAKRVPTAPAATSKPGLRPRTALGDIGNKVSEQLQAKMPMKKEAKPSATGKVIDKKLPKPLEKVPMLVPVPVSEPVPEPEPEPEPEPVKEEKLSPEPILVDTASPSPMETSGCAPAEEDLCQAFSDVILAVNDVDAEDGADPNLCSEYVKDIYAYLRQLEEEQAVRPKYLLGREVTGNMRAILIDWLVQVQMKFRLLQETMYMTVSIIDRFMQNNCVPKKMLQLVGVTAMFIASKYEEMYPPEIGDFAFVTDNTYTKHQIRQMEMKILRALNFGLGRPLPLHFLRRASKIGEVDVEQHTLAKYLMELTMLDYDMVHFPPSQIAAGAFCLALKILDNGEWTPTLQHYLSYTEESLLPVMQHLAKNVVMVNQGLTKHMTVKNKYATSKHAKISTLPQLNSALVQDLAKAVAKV
Chain of MAPK1 (P28482 whole entry): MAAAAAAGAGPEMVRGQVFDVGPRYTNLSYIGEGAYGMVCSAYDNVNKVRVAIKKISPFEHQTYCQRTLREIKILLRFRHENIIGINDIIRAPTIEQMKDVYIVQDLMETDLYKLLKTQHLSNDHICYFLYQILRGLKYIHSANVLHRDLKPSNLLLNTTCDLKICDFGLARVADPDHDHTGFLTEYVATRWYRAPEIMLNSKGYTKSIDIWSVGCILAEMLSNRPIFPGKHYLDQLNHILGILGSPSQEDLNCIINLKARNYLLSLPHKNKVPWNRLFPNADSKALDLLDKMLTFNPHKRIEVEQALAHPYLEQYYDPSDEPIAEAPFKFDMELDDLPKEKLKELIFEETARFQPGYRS
Chain of AURKA (O14965 whole entry): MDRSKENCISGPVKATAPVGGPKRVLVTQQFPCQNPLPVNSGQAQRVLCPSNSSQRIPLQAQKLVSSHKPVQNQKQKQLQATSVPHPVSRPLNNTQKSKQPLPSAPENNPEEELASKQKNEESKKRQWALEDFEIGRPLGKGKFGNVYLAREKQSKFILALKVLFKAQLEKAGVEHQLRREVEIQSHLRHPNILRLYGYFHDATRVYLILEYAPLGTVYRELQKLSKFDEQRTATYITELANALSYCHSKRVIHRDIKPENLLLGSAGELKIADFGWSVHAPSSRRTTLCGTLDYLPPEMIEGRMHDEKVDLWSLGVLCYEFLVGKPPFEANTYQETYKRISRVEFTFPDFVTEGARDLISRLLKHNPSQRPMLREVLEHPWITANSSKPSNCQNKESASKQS
Chain of Biotin carboxylase (P37798 whole entry): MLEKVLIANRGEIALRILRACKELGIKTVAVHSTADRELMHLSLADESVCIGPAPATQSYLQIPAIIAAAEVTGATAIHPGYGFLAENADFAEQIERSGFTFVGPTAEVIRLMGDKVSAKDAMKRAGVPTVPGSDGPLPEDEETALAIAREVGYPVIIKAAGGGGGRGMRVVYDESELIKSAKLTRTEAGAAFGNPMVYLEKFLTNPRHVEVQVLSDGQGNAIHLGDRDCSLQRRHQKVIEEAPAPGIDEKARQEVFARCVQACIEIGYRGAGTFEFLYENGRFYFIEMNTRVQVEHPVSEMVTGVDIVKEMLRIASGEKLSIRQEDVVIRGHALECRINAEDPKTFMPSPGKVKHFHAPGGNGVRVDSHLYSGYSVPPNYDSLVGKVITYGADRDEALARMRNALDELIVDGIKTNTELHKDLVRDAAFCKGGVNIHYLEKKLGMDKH

For the compound `Nc1ncc2cc(-c3c(Br)cccc3Br)c(N)nc2n1`, the inhibition at 1 h, 25 µM on AKT1 turned out to be 4%; at MAPK1, 26%; on MAPK14 it was 24%; on SGK (Sgk1), 7%; on AURKA it was 20%; at CHEK2, 13%. In addition, the inhibition at 1 h, 25 µM at CDK1/cyclin B is 18%; at CSNK2A1, 4%. Further, in the series on Escherichia coli [1], the result was Active.

Consider `CC(C)COc1cccc(Cl)c1-c1cc2cnc(N)nc2nc1N1C[C@@H]2[C@@H](N)[C@@H]2C1`, for which it took 0.03 µg/mL (≈ 0.0706 µM) to inhibit growth in the series with Escherichia coli [2] (MIC). Also, the inhibition at 1 h, 25 µM on AKT1 stood at 7%; on MAPK1 it was 6%; on MAPK14, 5%; on CHEK2, 67%; on FYN it was 12%; against IKBKE, 0%. In addition, the inhibition at 1 h, 25 µM against MET is 15%. Further, in the series with Escherichia coli [3], the result was Active. For the same compound, on Biotin carboxylase, the IC50 was ≤ 15 nM. The Activity in the series on Pseudomonas aeruginosa worked out at 2 ×10⁻⁹ No_unit.

The compound `Nc1ncc2cc(-c3c(Cl)cccc3-c3cccnc3)c(N3C[C@@H]4[C@@H](N)[C@@H]4C3)nc2n1` had an MIC against Escherichia coli [2] of 0.03 µg/mL (≈ 0.0698 µM). The inhibition at 1 h, 25 µM amounted to 6% at AKT1; 9% at AURKA; 20% at CHEK2; 4% at CDK1/cyclin B; 12% at FYN; 3% on IKBKE. Also, the inhibition at 1 h, 25 µM on CSNK2A1 was found to be 0%; on BTK, 16%; against MET, 7%; on IKBKB, 5%. Further, the IC50 on Biotin carboxylase is ≤ 15 nM. In addition, in the series on Pseudomonas aeruginosa, the Activity is 9 ×10⁻⁹ No_unit.

(Values after ChEMBL document CHEMBL4406811, “Optimization and Mechanistic Characterization of Pyridopyrimidine Inhibitors of Bacterial Biotin Carboxylase” (J Med Chem, 2019).)
